How the values were obtained:
[1] = test system: rats; settings: rat, in vivo, ip, 100 mg/kg
Protocol: A single dose i.p. toxicity study in rats was carried out. […] The minimal lethal dose is thus above 100 mg/kg body weight for these compounds.

[2] = test system: Human Breast Adenocarcinoma Cell Line MDA-MB-231; test: Drug cytotoxicity testing (viable cell count, trypan blue exclusion) in MDA-MB-231 cultures; assay type: cell-based; settings: for Tumor Cell Number: compound or drug alone 10^−7 mol/L (100 nM), medium with 5% FBS
Protocol: MDA-MB-231 cells were propagated in MEM culture medium with 2 mM L-glutamine, 10% heat-inactivated fetal bovine serum (FBS) and antibiotics. DU 145 cells were cultured in MEM culture medium containing 2 mM L-glutamine, 1 mM sodium pyruvate, 10% FBS and antibiotics. SKOV-3 cells were cultured in McCoy's 5A culture medium, supplemented with 1,5 mM L-glutamine, 10% FBS and antibiotics. A549 cells were cultured in Ham's F-12 culture medium with 1 mM L-glutamine, 10% FBS and antibiotics.
The cell cultures in cultivation plates were allowed to adhere for 24 hour of incubation. […] The cells were incubated for 2 consecutive days. At the end of the incubation period adherent cells were detached by trypsinization and the number of viable cells was counted using trypan blue exclusion test and a hemocytometer. All data were derived from an average of three determinations each in six replicates. The results were expressed as mean cell number±SE and the differences between control and test series evaluated by means of Student's t-test. The drug cytotoxicity was evaluated based on the extent of cell growth inhibition.
Therefore an average of negative controls was calculated. […] Therefore an average of positive controls was calculated (for each antibiotic).

`CC1=C(/C=C/C(C)=C/C=C/C(C)=C/C(=O)N[C@@H](CS(=O)O)C(=O)O)C(C)(C)CCC1` (stereo in doubt) [I-2, N-(all-trans-Retinoyl)-L-cysteinesulfinic acid] was tested, and the mortality [1] was “did not produce mortality”.
In the case of `CC1=C(/C=C/C(C)=C/C=C/C(C)=C/C(=O)N[C@@H](CS(=O)(=O)O)C(=O)O)C(C)(C)CCC1` [I-1, N-(all-trans-Retinoyl)-L-cysteic acid], the mortality [1] is reported as “did not produce mortality”.
`COC(=O)[C@H](CCS(=O)(=O)O)NC(=O)/C=C(C)/C=C/C=C(C)/C=C/C1=C(C)CCCC1(C)C` [I-3a] was tested, and the “cell growth inhibition achieved when increasing the concentration” value ([2]; compound (sodium salt) alone, concentration range 10^−9 to 10^−7 M, listed as II-3a) was ~49%.
In the case of `CC1=C(/C=C/C(C)=C/C=C/C(C)=C\C(=O)N[C@@H](CS(=O)(=O)O)C(=O)OC(C)C)C(C)(C)CCC1` [II-1c], the “Tumor Cell Number” value [2] is reported as 29.0 ± 1.26 × 10^3.
In the case of `CCCCOC(=O)[C@H](CS(=O)(=O)O)NC(=O)\C=C(C)/C=C/C=C(C)/C=C/C1=C(C)CCCC1(C)C` [II-1e], the “Tumor Cell Number” value [2] is reported as “(26.0 ± 1.27) × 10^3, cell growth inhibition”.
For `CC1=C(/C=C/C(C)=C/C=C/C(C)=C\C(=O)N[C@@H](CCS(=O)(=O)O)C(=O)O)C(C)(C)CCC1` [II-3, N-(13-cis-Retinoyl)-L-homocysteic acid], the mortality [1] was “did not produce mortality”.
